# Reference: patent US20200369996A1, “Bioreactor Screening Platform for Modelling Human Systems Biology and for Screening for Inotropic Effects of Agents on the Heart” (NOVOHEART LIMITED, priority 2017, published 2020)
# Entries after “also recorded” stand apart in the source; their conditions may differ. Where two headings read alike, the source gives them in different places.
# Legend:
# [1] = system: human ventricular cardiac tissue strips (hvCTS); assay: hvCTS drug screening: twitch force under electrical pacing; format: cell-based; conditions: Homo sapiens
# Protocol: One of ordinary skill in the art will recognize that the gels can be formed in any of a variety of sizes and shapes, and the molds used to form such gels can also be formed in any of a variety of sizes and shapes, depending on the intended use of the molded gel. The molded mixtures were then bathed with culture medium (DMEM supplemented with 10% newborn calf serum), and maintained in culture with daily half-medium exchanges. Inserts in the casting molds were removed at 48 hours, yielding a self-assembled hvCTS held between 0.5-mm-diameter circular PDMS posts at each end. It is apparent that the posts can be formed from any flexible material amenable to at least one form of sterilization are suitable. As noted above, the whole mold can be scaled up or down depending on the application, and the posts can also be scaled up or down. In general, the height of the posts would be similar to the height of a well (e.g., about 6 mm in an exemplary embodiment). Any of a wide variety of cross-sectional shapes is contemplated as being suitable for use in the system, apparatus and methods according to the disclosure. At 7 days after hvCTS creation, the hvCTS were used for drug screening.
# Initially, pharmacological compounds were prepared for screening. Compounds for unblinded “open label” screening were purchased from Sigma and stock solutions at the highest possible concentrations were prepared according to the product information. Working concentrations over a 5-logarithmic range were prepared for each drug.
# Working concentrations over a 5-logarithmic range were prepared for each drug according to the dose-range recommendation provided by the supplier.
# New born calf serum containing medium was replaced with DMEM high glucose with HEPES without phenol red for optical measurement of generated force in hvCTS. […] The integrated flexible PDMS posts were used as force sensors, with the post deflection captured in real-time with a high-speed camera (100 frames/s) and LabView software (National Instruments, Austin, Tex., USA), applying a beam-bending equation from elasticity theory to calculate twitch force, as described previously^[2] and incorporated herein by reference. These measurements were obtained with the hvCTS maintained in the original molds where they were created with the hvCTS bathed in culture medium at 37° C. For each drug, force generated in response to 9 doses were measured with the drugs added to the hvCTS at half log increments in a cumulative manner. For each dose, the force generated at 0 Hz, 0.5 Hz, 1 Hz, 1.5 Hz and 2 Hz electrical pacing with field electrodes were measured.
# Data analysis. Data were calculated and analyzed by a customized MatLab program. Force frequency curves for each drug were generated by plotting the generated force at 0.5 Hz, 1 Hz, 1.5 Hz and 2 Hz at different concentrations. All forces were normalized to the generated force at 0.5 Hz at the drug-free baseline condition (100%).
# […] The force generated under drug-free baseline condition was defined as 100%. The force generated at each drug concentration was then normalized to the generated force under the cognate drug-free baseline condition. The EC50 of each tested drug was estimated by fitting to a four-parameter dose-response equation given as: Y=Bottom+(Top-Bottom)/(1+10^((Log EC^50^−X)*HillSlope)), using commercial software (GraphPad Software Inc.). X is the logarithm of drug concentrations; […]; Top and Bottom are the Y values of the top and bottom plateaus of the curve itself; Baseline is the Y value that defines 0%—maximal inhibition by a standard drug. Hill Slope quantifies the steepness of the dose-response curve (the higher the Hill Slope, the steeper the curve).
# [2] = system: sheep cardiac Purkinje fibers; conditions: ref [19]; cited from earlier work
# [3] = system: human ventricular cardiac organoid chamber (hvCOC); assay: hvCOC second tier screening: contractile (pump) function; format: cell-based
# Description: The initial steps of hvCOC fabrication are identical to that described above for hvCTS generation, from the dissociation of cell clusters to the preparation of the cells/collagen/Matrigel mix with 1 million cells/ml of human dermal fibroblasts.
# To create the chamber, we followed a procedure similar to a published procedure^29, incorporated herein by reference. Briefly, the top of a 3×3×6 cm polystyrene bioreactor was modified to permit 9-gauge hypodermic tubing (Small Parts) to pass through the center and 4 mm diameter graphite electrodes (GraphiteStore) to flank the chamber on the edges of the bioreactor. A 6-Fr silicone balloon Foley catheter (Cook Medical), with the tip cut off and sealed with silicone caulking, was threaded through the 9-Gauge tubing into the center of the bioreactor. A small ring cut from hydrophilic porous polyethylene (Fisher Scientific) was placed just above the balloon on the hypodermic tubing.
# The balloon was filled with distilled water to the desired chamber size and positioned concentrically within a 2% agarose mold created in phosphate-buffered saline (PBS) and made by inserting a 13 mm diameter test tube (VWR) into the center of the agarose. The agarose mold forms the outer mold boundary while the catheter balloon forms the inner boundary. […]
# EHT from hiPSC-CMs = conditions: drug screening with EHT from hiPSC-CMs; ref [3]; cited from earlier work
# [4] = system: non-failing human myocardium; conditions: ref [18]; cited from earlier work
# [5] = system: human right atrial trabeculae; conditions: ref [21]; cited from earlier work
# hECT = hECT in muscle bath; ref [28]; cited from earlier work
structure (smiles),measurement,setting,value
CCN(CC)CC(=O)Nc1c(C)cccc1C [Lidocaine],IC50,"[1]; 1 Hz pacing, blinded screening, Example 4, read-out: IC50, developed contractile force",440 nM
same,EC50,"[1]; Blinded, 1 Hz pacing, read-out: -log EC50 in hvCTS (converted)",437000 nM
same,EC50,"[1]; Blinded, 1 Hz pacing, read-out: EC50 in hvCTS (in brackets)",439000 nM
same,concentration with negative inotropic effect,[2],"20 μM, [19] negative inotropic effect in sheep"
CC(C)NCC(O)c1ccc(O)c(O)c1 (stereo not shown) [Isoproterenol],Emax at 10 µM,"[3]; Homo sapiens, 10 μM isoproterenol, hvCOC, read-out: maximal effect, pressure",132%
same,effect on hvCOC function,"[3]; stroke volume/stroke work, cardiac output, developed pressure","concentration-dependent increase in stroke volume, cardiac output, and developed pressure; also recorded: increase in stroke work, cardiac output and pressure volume loop"
same,EC50,"[1]; 0.5 Hz pacing, Example 2 / FIG. 2C, read-out: EC50, developed contractile force",39 nM
same,EC50,"[1]; 1 Hz pacing, Example 2, read-out: EC50, developed contractile force",59 nM
same,EC50,"[1]; 1 Hz pacing, unblinded screening, Example 3, read-out: EC50, developed contractile force",150 nM
same,EC50,"[1]; 1.5 Hz pacing, Example 2, read-out: EC50, developed contractile force",54 nM
same,EC50,"[1]; 2 Hz pacing, Example 2 / FIG. 2C, read-out: EC50, developed contractile force",31 nM
same,EC50,"[1]; Unblinded, 1 Hz pacing, read-out: -log EC50 in hvCTS (converted)",148 nM
same,EC50,"[1]; Unblinded, 1 Hz pacing, read-out: EC50 in hvCTS (in brackets)",150 nM
same,EC50,"[1]; across pacing frequencies 0.5-2 Hz, FIG. 2C, read-out: EC50 with increasing pacing frequency",31 to 59 nM
same,Emax at 10 µM,"[1]; 10 μM isoproterenol, hvCTS, read-out: maximal effect",113%
same,relevant concentration,EHT from hiPSC-CMs,"5.4 nM [3], drug screening with EHT from hiPSC-CMs"
same,relevant concentration,[4],"0.8 μM [18], non-failing human myocardium"
COc1ccc(CCN(C)CCCC(C#N)(c2ccc(OC)c(OC)c2)C(C)C)cc1OC (stereo not shown) [Verapamil],IC50,[5],123 nM
same,relevant concentration,hECT,"0.61 μM [28], hECT in muscle bath"
